Experimental data as given in BindingDB's records for doi:10.1002/bip.20588 (University of California Davis, 2006).
*1 amine or outer side, *2 acyl side, *3 side chain or, on linkers, in order; H or OH if unused. Where a SMILES comes first, the peptide text is derived from it. [ ]: non-standard residue; d: D form. The star is where a group is joined. ξ: configuration not given here. X1 = O=C(Cc1ccc(N[*:1])cc1)[*:2]; Ile(3ξ) = CCC(C)[C@H](N)C(=O)O; NH(2-Me-phenyl) = Cc1ccccc1N*; β3hD = NC(CC(=O)O)CC(=O)O; Nle = CCCC[C@H](N)C(=O)O; Abu = CC[C@H](N)C(=O)O; Dap = NC[C@H](N)C(=O)O; Ac3c = NC1(C(=O)O)CC1; Aib = CC(C)(N)C(=O)O; CO = O=C([*:1])[*:2]; Butyryl = CCCC(=O)*; X10 = Brc1ccccc1N*

Molecular target: Integrin alpha-4/beta-1 (Homo sapiens, UniProt P05556+P13612, T112H)
Assay: Jurkat Cell Adhesion Inhibition Assay
Experimental: Binding affinities (IC50) of the ligands were studied in a Jurkat cell adhesion assay by inhibiting the alpha-4/beta-1 mediated cell adhesion to CS-1 peptides. The 96-well plates were coated with neutravidin, followed by biotinconjugated CS-1 peptides. Jurkat cells with series dilutions of tested ligands in binding buffer were added and allowed to bind for 30 min. Bound cells were recorded using a 96-well plate reader at 570 nm. IC50 values were calculated from inhibition curves resulting from the concentration-dependent inhibition

Compound | IC50 [nM] | IC50 (pH 7.5, 22 °C) [nM]
CCCC(=O)NC[C@H](NC(=O)Cc1ccc(NC(=O)Nc2ccccc2C)cc1)C(=O)N[C@@H](CC(=O)O)C(=O)N[C@H](C(=O)N1CCC[C@H]1C(N)=O)C(C)CC (stereo partly drawn) [(3S)-3-[(2S)-3-butanamido-2-[1-(4-{[(2-methylphenyl)carbamoyl]amino}phenyl)acetamido]propanamido]-3-{[(2S,3S)-1-[(2S)-2-carbamoylpyrrolidin-1-yl]-3-methyl-1-oxopentan-2-yl]carbamoyl}propanoic acid] ({NH(2-Me-phenyl)-CO}-[X1][Dap](Butyryl)D[Ile(3ξ)]P-NH2) | 138 | –
CCCC[C@H](NC(=O)Cc1ccc(NC(=O)Nc2ccccc2C)cc1)C(=O)N[C@@H](CC(=O)O)C(=O)N[C@H](C(=O)NC1CCCC1C(N)=O)C(C)CC (stereo partly drawn) [(3S)-3-{[(1S,2S)-1-[(2-carbamoylcyclopentyl)carbamoyl]-2-methylbutyl]carbamoyl}-3-[(2S)-2-[1-(4-{[(2-methylphenyl)carbamoyl]amino}phenyl)acetamido]hexanamido]propanoic acid] | – | 3.4
CCCC[C@H](NC(=O)Cc1ccc(NC(=O)Nc2ccccc2C)cc1)C(=O)N[C@@H](CC(=O)O)C(=O)N[C@H](C(=O)Nc1cccc(C(N)=O)c1)C(C)CC (stereo partly drawn) [(3S)-3-{[(1S,2S)-1-[(3-carbamoylphenyl)carbamoyl]-2-methylbutyl]carbamoyl}-3-[(2S)-2-[1-(4-{[(2-methylphenyl)carbamoyl]amino}phenyl)acetamido]hexanamido]propanoic acid] | – | 3.3
CCCC[C@H](NC(=O)Cc1ccc(NC(=O)Nc2ccccc2C)cc1)C(=O)N[C@@H](CC(=O)O)C(=O)N[C@H](C(=O)NC1CC[C@@H]2SC[C@@H](C(N)=O)N2C1=O)[C@@H](C)CC (stereo partly drawn) [(3S)-3-{[(1S,2S)-1-{[(3R,8aS)-3-carbamoyl-5-oxo-hexahydro-2H-pyrido[2,1-b][1,3]thiazol-6-yl]carbamoyl}-2-methylbutyl]carbamoyl}-3-[(2S)-2-[1-(4-{[(2-methylphenyl)carbamoyl]amino}phenyl)acetamido]hexanamido]propanoic acid] | – | 3.4
CCCC[C@H](NC(=O)Cc1ccc(NC(=O)Nc2ccccc2C)cc1)C(=O)N[C@@H](CC(=O)O)C(=O)N[C@H](C(=O)N1CCCC(C(N)=O)C1)C(C)CC (stereo partly drawn) [(3S)-3-{[(2S,3S)-1-(3-carbamoylpiperidin-1-yl)-3-methyl-1-oxopentan-2-yl]carbamoyl}-3-[(2S)-2-[1-(4-{[(2-methylphenyl)carbamoyl]amino}phenyl)acetamido]hexanamido]propanoic acid] | – | 4
CCCC[C@H](NC(=O)Cc1ccc(NC(=O)Nc2ccccc2C)cc1)C(=O)N[C@@H](CC(=O)O)C(=O)N[C@H](C(=O)N1CCC(C(N)=O)CC1)C(C)CC (stereo partly drawn) [(3S)-3-{[(2S,3S)-1-(4-carbamoylpiperidin-1-yl)-3-methyl-1-oxopentan-2-yl]carbamoyl}-3-[(2S)-2-[1-(4-{[(2-methylphenyl)carbamoyl]amino}phenyl)acetamido]hexanamido]propanoic acid] | – | 3.3
CCCC[C@H](NC(=O)Cc1ccc(NC(=O)Nc2ccccc2C)cc1)C(=O)N[C@@H](CC(=O)O)C(=O)N[C@H](C(=O)N1CCC2(CC1)C(=O)N(CC(N)=O)CN2c1ccccc1)C(C)CC (stereo partly drawn) [(3S)-3-{[(2S,3S)-1-[3-(carbamoylmethyl)-4-oxo-1-phenyl-1,3,8-triazaspiro[4.5]decan-8-yl]-3-methyl-1-oxopentan-2-yl]carbamoyl}-3-[(2S)-2-[1-(4-{[(2-methylphenyl)carbamoyl]amino}phenyl)acetamido]hexanamido]propanoic acid] | – | 29

Further lines, results first:

IC50 [nM] | IC50 (pH 7.5, 22 °C) [nM] | Compound
4 | – | CCCC[C@H](NC(=O)Cc1ccc(NC(=O)Nc2ccccc2C)cc1)C(=O)N[C@@H](CC(=O)O)CC(=O)N[C@H](C(=O)N1CCC[C@H]1C(N)=O)C(C)CC (stereo partly drawn) [(3R)-4-{[(2S,3R)-1-[(2S)-2-carbamoylpyrrolidin-1-yl]-3-methyl-1-oxopentan-2-yl]carbamoyl}-3-[(2S)-2-[1-(4-{[(2-methylphenyl)carbamoyl]amino}phenyl)acetamido]hexanamido]butanoic acid] ({NH(2-Me-phenyl)-CO}-[X1][Nle][β3hD][Ile(3ξ)]P-NH2)
13 | – | CCCC[C@H](NC(=O)Cc1ccc(NC(=O)Nc2ccccc2C)cc1)C(=O)N[C@@H](CC(=O)O)C(=O)NC(C)(C)C(=O)N1CCC[C@H]1C(N)=O [(3S)-3-({1-[(2S)-2-carbamoylpyrrolidin-1-yl]-2-methyl-1-oxopropan-2-yl}carbamoyl)-3-[(2S)-2-[1-(4-{[(2-methylphenyl)carbamoyl]amino}phenyl)acetamido]hexanamido]propanoic acid] ({NH(2-Me-phenyl)-CO}-[X1][Nle]D[Aib]P-NH2)
9.2 | – | CCCC[C@H](NC(=O)Cc1ccc(NC(=O)Nc2ccccc2C)cc1)C(=O)N[C@@H](CC(=O)O)C(=O)NC1(C(=O)N2CCC[C@H]2C(N)=O)CC1 [(3S)-3-[(1-{[(2S)-2-carbamoylpyrrolidin-1-yl]carbonyl}cyclopropyl)carbamoyl]-3-[(2S)-2-[1-(4-{[(2-methylphenyl)carbamoyl]amino}phenyl)acetamido]hexanamido]propanoic acid] ({NH(2-Me-phenyl)-CO}-[X1][Nle]D[Ac3c]P-NH2)
4.8 | – | CCCC[C@H](NC(=O)Cc1ccc(NC(=O)Nc2ccccc2Br)cc1)C(=O)N[C@@H](CC(=O)O)C(=O)N[C@H](C(=O)N1CCC[C@H]1C(N)=O)C(C)CC (stereo partly drawn) [(3S)-3-[(2S)-2-[1-(4-{[(2-bromophenyl)carbamoyl]amino}phenyl)acetamido]hexanamido]-3-{[(2S,3S)-1-[(2S)-2-carbamoylpyrrolidin-1-yl]-3-methyl-1-oxopentan-2-yl]carbamoyl}propanoic acid] ({X10-CO}-[X1][Nle]D[Ile(3ξ)]P-NH2)
2.9 | – | CCCC[C@H](NC(=O)Cc1ccc(NC(=O)Nc2ccccc2C)cc1)C(=O)N[C@@H](CC(=O)O)C(=O)N[C@@H](CC)C(=O)N1CCC[C@H]1C(N)=O [(3S)-3-{[(2S)-1-[(2S)-2-carbamoylpyrrolidin-1-yl]-1-oxobutan-2-yl]carbamoyl}-3-[(2S)-2-[1-(4-{[(2-methylphenyl)carbamoyl]amino}phenyl)acetamido]hexanamido]propanoic acid] ({NH(2-Me-phenyl)-CO}-[X1][Nle]D[Abu]P-NH2)
0.6 | – | CCCC[C@H](NC(=O)Cc1ccc(NC(=O)Nc2ccccc2C)cc1)C(=O)N[C@@H](CC(=O)O)C(=O)N[C@H](C(=O)N1CCC[C@H]1C(N)=O)C(C)C [(3S)-3-{[(2S)-1-[(2S)-2-carbamoylpyrrolidin-1-yl]-3-methyl-1-oxobutan-2-yl]carbamoyl}-3-[(2S)-2-[1-(4-{[(2-methylphenyl)carbamoyl]amino}phenyl)acetamido]hexanamido]propanoic acid] ({NH(2-Me-phenyl)-CO}-[X1][Nle]DVP-NH2)
– | 3 | CCCC[C@H](NC(=O)Cc1ccc(NC(=O)Nc2ccccc2C)cc1)C(=O)N[C@@H](CC(=O)O)C(=O)N[C@H](C(=O)N1CCCC[C@@H]1C(N)=O)C(C)CC (stereo partly drawn) [(3S)-3-{[(2S,3S)-1-[(2R)-2-carbamoylpiperidin-1-yl]-3-methyl-1-oxopentan-2-yl]carbamoyl}-3-[(2S)-2-[1-(4-{[(2-methylphenyl)carbamoyl]amino}phenyl)acetamido]hexanamido]propanoic acid]
